Values of other authors, collected in patent US7507425B2, “Method for the treatment of cachexia” (The Quigley Corporation, priority 2005, dated 2009).

Test system: nitric oxide synthase (NOS)
Conditions: Northern-blot and immunoblotting; macrophages activated with vs without curcumin

COc1cc(/C=C/C(=O)CC(=O)/C=C/c2ccc(O)c(OC)c2)ccc1O [curcumin]
levels of mRNA and 130-k Da protein of inducible NOS: significantly reduced levels
